Data taken from patent EP1377579B1 (Aventis Pharmaceuticals Inc., priority 2000, dated 2002).

Assays:
[1] = molecular target: cdk2/cyclin E (Homo sapiens, UniProt P24941); experiment: Cyclin-dependent kinase assay, cdk2/cyclin E; details: CDK2 IC50, nM, GST-pRb substrate, 10 µM ATP
[2] = molecular target: cdk4/cyclin D1 (Homo sapiens, UniProt P11802); experiment: Cyclin-dependent kinase assay, cdk4/cyclin D1; format: biochemical; details: cyclin D1/cdk4; GST-pRb substrate, 10 µM ATP
[3] = system: NCI-H460; experiment: In vitro proliferation assay (MTT), NCI-H460; format: cell-based; details: Homo sapiens, NCI-H460; MTT assay; value (SD, n) where given; read-out: H-460 Lung (IC50 µM)
Outline: (§1)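 Overnight-recovered cultures (1000–2500 cells/well) were treated with compound for 3 days and then given MTT at 37 C for 2–4 hr. Dye was extracted with DMSO and read at 570 nm. IC50s were fitted to the absorbance-versus-concentration data.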

[4] = Red blood cell binding, mouse whole blood; format: in vitro ADME; details: 30 minutes at 37°C, 500 ng/ml
Experimental: Compounds, including one positive control, are assessed for red blood cell (RBC) uptake, using a modified procedure based on the protocol reported in Sun, J.X.S., et al. High-performance liquid chromatographic analysis, plasma protein binding and red blood cell partitioning of phenprobamate. Biopharmaceutics and Drug Disposition, 8 (1987) 341-351.
Briefly, RBC uptake is evaluated by comparison of the levels in spiked plasma (n=3) and plasma isolated from spiked whole blood (n=3). Compounds are incubated with human and mouse whole blood, respectively, for 30 minutes at 37°C using a nominal concentration of 500 ng/ml. Following centrifugation, the plasma is removed and submitted for analysis. Each compound is also spiked into blank plasma at a nominal concentration of 500 ng/ml, and submitted for analysis. Levels in the two plasma samples (Cp' and Cp in the equation below) and the blood hematocrit are used to determine the red blood cell to plasma ratio (Crbc/Cp). (Crbc)/(Cp) = (Cpʹ)/(Cp•H)-((1-H))/(H) [formula] In equation 1, Cp' is the level of drug in the spiked "blank" plasma, Cp is the level of drug in the plasma of spiked whole blood, and H is the hematocrit. The hematocrit values are determined as 0.4 for human whole blood and 0.41 for mouse whole blood. The samples are analyzed with ESI LC/MS, using positive ion detection with an internal standard.
The red blood cell to plasma ratio is determined for each compound using equation 1. Tables 6 and 7 summarize the respective mean Crbc/Cp values and standard deviations for mouse and human whole blood, respectively, in descending order based on the red blood cell to plasma ratio, where"*" denotes Positive Control, and "ND" denotes Not Determined. MDL 108552 is included as a positive control for red blood cell uptake. Table 6. Red Blood Cell to Plasma Ratio for compounds in mouse whole blood

[5] = system: PC-3; experiment: In vitro proliferation assay (MTT), PC-3; format: cell-based, human; details: Homo sapiens, PC-3, MTT assay; value (SD, n) where given; read-out: PC-3 Prostate (IC50 µM)
Outline: (§2)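 Tetrazolium (MTT) reduction measures live cells remaining after 3 days with test compound, following overnight attachment at 1000–2500 cells/well. Dye is taken up in DMSO and read at 570 nm.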

[6] = system: MDA-MB-435; experiment: In vitro proliferation assay (MTT), MDA-MB-435; format: cell-based, human; details: Homo sapiens, MDA-MB-435, MTT assay; value (SD, n) where given; read-out: MB-435 Breast (IC50 µM)
Outline: as §2

[7] = system: Colo-205; experiment: In vitro proliferation assay (MTT), Colo-205; format: cell-based; details: Homo sapiens, COLO 205; MTT assay; value (SD, n) where given; read-out: Colo-205 Colon (IC50 µM)
Outline: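 After 3 days of compound exposure, MTT was added to Colo-205 cultures for 2–4 h at 37 °C. Formazan was dissolved in DMSO and absorbance read at 570 nm. Cells had been plated at 1000–2500/well and left to recover overnight; IC50 values came from the raw readings.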

[8] = system: Jurkat; experiment: In vitro proliferation assay (MTT), Jurkat; format: cell-based; details: Homo sapiens, MTT assay, value (SD, n) where given, read-out: Jurkat Leuk. (IC50 µM)
Outline: as §1

Sequence of cdk4/cyclin D1 (P11802 whole entry): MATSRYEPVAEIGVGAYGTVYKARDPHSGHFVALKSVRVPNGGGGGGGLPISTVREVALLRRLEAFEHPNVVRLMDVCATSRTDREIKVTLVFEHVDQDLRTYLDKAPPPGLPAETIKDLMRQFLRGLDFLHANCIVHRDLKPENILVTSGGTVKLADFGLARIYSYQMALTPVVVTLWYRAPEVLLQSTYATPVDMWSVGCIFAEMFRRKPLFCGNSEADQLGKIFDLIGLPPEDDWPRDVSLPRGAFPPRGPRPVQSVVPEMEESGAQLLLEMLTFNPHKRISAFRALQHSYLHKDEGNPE
Sequence of cdk4/cyclin D1 (P24385 whole entry partner): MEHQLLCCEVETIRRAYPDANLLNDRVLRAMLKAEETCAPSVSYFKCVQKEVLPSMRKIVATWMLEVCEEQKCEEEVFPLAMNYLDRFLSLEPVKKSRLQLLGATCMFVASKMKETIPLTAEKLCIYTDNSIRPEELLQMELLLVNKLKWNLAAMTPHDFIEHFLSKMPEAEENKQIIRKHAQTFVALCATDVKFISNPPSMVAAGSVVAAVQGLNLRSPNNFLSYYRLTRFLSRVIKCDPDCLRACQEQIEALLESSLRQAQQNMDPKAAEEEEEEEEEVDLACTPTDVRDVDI

## CCOC(=O)c1ccc(NC(=O)N2CCC(Nc3nc(N[C@H]4CC[C@H](N)CC4)nc4c3ncn4C3CCCC3)CC2)cc1.Cl.Cl [compound 154, trans-4-[(1-{4-[2-(4-Amino-cyclohexylamino)-9-cyclopentyl-9H-purin-6-ylamino]-piperidin-1-yl}-methanoyl)-amino]-benzoic acid ethyl ester dihydrochloride]
[1]
  IC50: 30 nM
[2]
  IC50: 285 nM
[3]
  IC50: 0.24 µM
[4]
  Mean Red Blood Cell to Plasma Ratio: 17.8
[5]
  IC50: 0.23 µM
[6]
  IC50: 0.21 µM
[7]
  IC50: 0.01 µM
[8]
  IC50: 0.25 µM
